Here are results for 32 molecules from patent US12565501B2, “Muscarinic acetylcholine M1 receptor antagonists” (Contineum Therapeutics, Inc., priority 2019, dated 2026).

Structures are written as SMILES. Bounds are passed on as bounds.

In this assay the target is T1, human M1 receptor (Homo sapiens, UniProt P11229).
T1 sequence (P11229 1-460): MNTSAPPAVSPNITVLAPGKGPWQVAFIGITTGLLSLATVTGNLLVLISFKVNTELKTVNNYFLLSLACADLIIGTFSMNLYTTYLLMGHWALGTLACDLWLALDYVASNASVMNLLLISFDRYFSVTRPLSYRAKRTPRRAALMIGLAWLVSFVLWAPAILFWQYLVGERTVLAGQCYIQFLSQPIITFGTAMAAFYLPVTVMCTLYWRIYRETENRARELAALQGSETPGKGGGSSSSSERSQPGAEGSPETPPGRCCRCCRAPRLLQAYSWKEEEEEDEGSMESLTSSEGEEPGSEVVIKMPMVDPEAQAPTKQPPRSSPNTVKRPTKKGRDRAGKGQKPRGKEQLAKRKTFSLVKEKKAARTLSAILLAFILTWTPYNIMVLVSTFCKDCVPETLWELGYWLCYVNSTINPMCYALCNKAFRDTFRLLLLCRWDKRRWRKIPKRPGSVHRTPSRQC
The assay is described as follows: In vitro functional assay of muscarinic acetylcholine receptor activity (aequorin calcium flux, reversal of EC80 acetylcholine response). Format: cell-based. As to conditions: CHO-K1 cells stably expressing human M1 receptor with aequorin; acetylcholine at EC80; calcium flux (luminescence); read-out: M1 IC50. The gist of the method: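 Antagonist mode: compound (final 0.1% DMSO) and coelenterazine-loaded M1/aequorin CHO-K1 cells incubated 30 min in the dark before EC80 acetylcholine addition. Calcium flash integrated as 40 s luminescence AUC; IC50 derived from dose-response curves.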
In general terms: Calcium assays in cells follow changes in intracellular calcium, usually with a dye or a luminescent sensor.

In general, IC50 refers to the midpoint of a concentration-inhibition curve. On to `COc1cccc(C2(NCC(=O)N3CC4CCC(C3)N4c3ccc(C#N)cn3)CC2)c1` [Example 98], for which the IC50 is less than 10 nM.

Regarding `N#Cc1ccc(C2(NCC(=O)N3CC4CCC(C3)N4c3ccc(C#N)cn3)CC2)cc1` [Example 100, 6-(3-((1-(4-cyanoplKml)cyclopropyl)glycyl)-3,8-diazabicyclo[3.2.1]oclaii-8-yl)mcotiiiomtrile], the IC50 was more than 1000 nM.

As for `N#Cc1ccc(N2C3CCC2CN(C(=O)CNC2(c4ccccc4Br)CC2)C3)nc1` [Example 101, 6-(3-((1-(2-bromophenyl)cyclopropyl)glycyl)-3,8-diazabicyclo[3.2.1]octan-8-yl)nicotinonitrile], the IC50 is 10 to 100 nM.

Consider `N#Cc1ccc(N2C3CCC2CN(C(=O)CNC2(c4ccncc4)CC2)C3)nc1` [Example 102, 6-(3-((1-(pyridin-4-yl)cyclopropyl)glycyl)-3,8-diazabicyclo[3.2.1]octan-8-yl)nicotinonitrile], for which the IC50 lay within 100 to 1000 nM.

As to `COc1cccc(C2(NCC(=O)N3CC4CCC(C3)N4c3ccc(C#N)cn3)CC2)c1F` [Example 103, 6-(3-((1-(2-fluoro-3-methoxyphenyl)cyclopropyl)glycyl)-3,8-diazabicyclo[3.2.1]octan-8-yl)nicotinonitrile], the IC50 fell in the range of 10 to 100 nM.

With `N#Cc1ccc(N2C3CCC2CN(C(=O)CN2CC(c4ccc(F)cc4)C2)C3)nc1` [Example 105, 6-(3-(2-(3-(4-fluorophenyl)azetidin-1-yl)acetyl)-3,8-diazabicyclo[3.2.1]octan-8-yl)nicotinonitrile], the IC50 was more than 1000 nM.

With `N#Cc1ccc(N2C3CCC2CN(C(=O)CNC2(c4cc(F)cc(F)c4)CC2)C3)nc1` [Example 107, 6-(3-((1-(3,5-difluorophenyl)cyclopropyl)glycyl)-3,8-diazabicyclo[3.2.1]octan-8-yl)nicotinonitrile], the IC50 lay in the range of 10 to 100 nM.

As for `COc1ccc(C2(NCC(=O)N3CC4CCC(C3)N4c3ccc(C#N)cn3)CC2)cc1F` [Example 108], the IC50 was in the range of 100 to 1000 nM.

Regarding `COc1cc(C2(NCC(=O)N3CC4CCC(C3)N4c3ccc(C#N)cn3)CC2)ccc1F` [Example 109, 6-(3-((1-(4-fluoro-3-methoxyphenyl)cyclopropyl)glycyl)-3,8-diazabicyclo[3.2.1]octan-8-yl)nicotinonitrile], the IC50 was less than 10 nM.

Turning to `COc1cc(F)cc(C2(NCC(=O)N3CC4CCC(C3)N4c3ccc(C#N)cn3)CC2)c1` [Example 110, 6-(3-((1-(3-fluoro-5-methoxyphenyl)cyclopropyl)glycyl)-3,8-diazabicyclo[3.2.1]octan-8-yl)nicotinonitrile], the IC50 is less than 10 nM.

Consider `COc1ccc(F)c(C2(NCC(=O)N3CC4CCC(C3)N4c3ccc(C#N)cn3)CC2)c1` [Example 111, 6-(3-((1-(2-fluoro-5-methoxyphenyl)cyclopropyl)glycyl)-3,8-diazabicyclo[3.2.1]octan-8-yl)nicotinonitrile], for which the IC50 was less than 10 nM.

For the molecule `COc1c(F)ccc(C2(NCC(=O)N3CC4CCC(C3)N4c3ccc(C#N)cn3)CC2)c1F` [Example 112, 6-(3-((1-(2,4-difluoro-3-methoxyphenyl)cyclopropyl)glycyl)-3,8-diazabicyclo[3.2.1]octan-8-yl)nicotinonitrile], the IC50 was less than 10 nM.

`COc1cc(C2(NCC(=O)N3CC4CCC(C3)N4c3ccc(C#N)cn3)CC2)c(F)cc1F` [Example 113, 6-(3-((1-(2,4-difluoro-5-methoxyphenyl)cyclopropyl)glycyl)-3,8-diazabicyclo[3.2.1]octan-8-yl)nicotinonitrile]: the IC50 was less than 10 nM.

Consider `COc1cccc(C2(NCC(=O)N3CC4CCC(C3)N4c3ccc(C#N)cn3)CCC2)c1` [Example 114, 6-(3-((1-(3-methoxyphenyl)cyclobutyl)glycyl)-3,8-diazabicyclo[3.2.1]octan-8-yl)nicotinonitrile], for which the IC50 is less than 10 nM.

For the molecule `N#Cc1ccc(N2C3CCC2CN(C(=O)CNC2(c4ccc(F)cc4F)CCC2)C3)nc1` [Example 115, 6-(3-((1-(2,4-difluorophenyl)cyclobutyl)glycyl)-3,8-diazabicyclo[3.2.1]octan-8-yl)nicotinonitrile], the IC50 was 10 to 100 nM.

As for `COc1ccc(F)c(C2(NCC(=O)N3CC4CCC(C3)N4c3ccc(C#N)cn3)CCC2)c1` [Example 116, 6-(3-((1-(2-fluoro-5-methoxyphenyl)cyclobutyl)glycyl)-3,8-diazabicyclo[3.2.1]octan-8-yl)nicotinonitrile], the IC50 lay in the range of 10 to 100 nM.

On to `COc1ccc(F)c(C2(NCC(=O)N3CC4CCC(C3)N4c3ccc(C#N)cn3)CCC2)c1F` [Example 117, 6-(3-((1-(2,6-difluoro-3-methoxyphenyl)cyclobutyl)glycyl)-3,8-diazabicyclo[3.2.1]octan-8-yl)nicotinonitrile], for which the half-maximal inhibitory concentration (IC50) was in the range of 100 to 1000 nM.

As for `N#Cc1ccc(N2C3CCC2CN(C(=O)CNC2(c4cccc(OC(F)(F)F)c4)CCC2)C3)nc1` [Example 119, 6-(3-((1-(3-(trifluoromethoxy)phenyl)cyclobutyl)glycyl)-3,8-diazabicyclo[3.2.1]octan-8-yl)nicotinonitrile], the IC50 was in the range of 100 to 1000 nM.

Consider `N#Cc1ccc(N2C3CCC2CN(C(=O)CCC(F)(F)c2cccc4ncccc24)C3)nc1` [Example 122, 6-(3-(4,4-difluoro-4-(quinolin-5-yl)butanoyl)-3,8-diazabicyclo[3.2.1]octan-8-yl)nicotinonitrile], for which the IC50 was less than 10 nM.

With `N#Cc1ccc(N2C3CCC2CN(C(=O)/C=C/C(F)(F)c2ccc(F)cc2)C3)nc1` [Example 123, 6-(3-((E)-4,4-difluoro-4-(4-fluorophenyl)but-2-enoyl)-3,8-diazabicyclo[3.2.1]octan-8-yl)nicotinonitrile], the half-maximal inhibitory concentration (IC50) is 10 to 100 nM.

For `N#Cc1ccc(N2C3CCC2CN(C(=O)CCC(F)(F)c2ccc(F)cc2)C3)nc1` [Example 124, 6-(3-(4,4-difluoro-4-(4-fluorophenyl)butanoyl)-3,8-diazabicyclo[3.2.1]octan-8-yl)nicotinonitrile], the IC50 is 10 to 100 nM.

On to `N#Cc1ccc(N2[C@@H]3CC[C@H]2CN(C(=O)/C=C/C(F)(F)c2cccc4nccnc24)C3)nc1` [Example 125, 6-(3-((E)-4,4-difluoro-4-(quinoxalin-5-yl)but-2-enoyl)-3,8-diazabicyclo[3.2.1]octan-8-yl)nicotinonitrile], for which the IC50 was less than 10 nM.

In the case of `Cc1noc(C)c1C(F)(F)CCC(=O)N1CC2CCC(C1)N2c1ccc(C#N)cn1` [Example 126, 6-(3-(4-(3,5-dimethylisoxazol-4-yl)-4,4-difluorobutanoyl)-3,8-diazabicyclo[3.2.1]octan-8-yl)nicotinonitrile], the IC50 was less than 10 nM.

Consider `N#Cc1ccc(N2C3CCC2CN(C(=O)CCNC(CO)c2ccc(F)cc2)C3)nc1` [Example 130, 6-((3-(3-(((R)-1-(4-fluorophenyl)-2-hydroxyethyl)amino)propanoyl)-3,8-diazabicyclo[3.2.1]octan-8-yl)nicotinonitrile], for which the IC50 is more than 1000 nM.

Regarding `N#Cc1ccc(N2C3CCC2CN(C(=O)CCNC(CO)c2ccc(F)cc2)C3)nc1` [Example 131, 6-((3-(3-(((S)1-(4-fluorophenyl)-2-hydroxyethyl)amino)propanoyl)-3,8-diazabicyclo[3.2.1]octan-8-yl)nicotinonitrile], the IC50 lay within 1000 to 10000 nM.

Take `COc1cc(C(F)(F)/C=C/C(=O)N2CC3CCC(C2)N3c2ccc(C#N)cn2)ccn1` [Example 139, 6-(3-((E)-4,4-difluoro-4-(2-methoxypyridin-4-yl)but-2-enoyl)-3,8-diazabicyclo[3.2.1]octan-8-yl)nicotinonitrile]: the IC50 is less than 10 nM.

With `COc1cnccc1C(F)(F)CCC(=O)N1CC2CCC(C1)N2c1ccc(C#N)cn1` [Example 140, 6-(3-(4,4-difluoro-4-(3-methoxypyridin-4-yl)butanoyl)-3,8-diazabicyclo[3.2.1]octan-8-yl)nicotinonitrile], the IC50 was less than 10 nM.

As for `COc1ncccc1C(F)(F)/C=C/C(=O)N1C[C@H]2CC[C@@H](C1)N2c1ccc(C#N)cn1` [Example 141, 6-(3-((E)-4,4-difluoro-4-(2-methoxypyridin-3-yl)but-2-enoyl)-3,8-diazabicyclo[3.2.1]octan-8-yl)nicotinonitrile], the IC50 is less than 10 nM.

As for `COc1cncc(C(F)(F)/C=C/C(=O)N2CC3CCC(C2)N3c2ccc(C#N)cn2)c1` [Example 142, 6-(3-((E)-4,4-difluoro-4-(5-methoxypyridin-3-yl)but-2-enoyl)-3,8-diazabicyclo[3.2.1]octan-8-yl)nicotinonitrile], the IC50 was less than 10 nM.

Regarding `COc1ccncc1C(F)(F)/C=C/C(=O)N1C[C@H]2CC[C@@H](C1)N2c1ccc(C#N)cn1` [Example 143, 6-(3-((E)-4,4-difluoro-4-(4-methoxypyridin-3-yl)but-2-enoyl)-3,8-diazabicyclo[3.2.1]octan-8-yl)nicotinonitrile], the IC50 is less than 10 nM.

As to `COc1cccnc1C(F)(F)/C=C/C(=O)N1C[C@H]2CC[C@@H](C1)N2c1ccc(C#N)cn1` [Example 144, 6-(3-((E)-4,4-difluoro-4-(3-methoxypyridin-2-yl)but-2-enoyl)-3,8-diazabicyclo[3.2.1]octan-8-yl)nicotinonitrile], the concentration for half-maximal inhibition (IC50) was less than 10 nM.

Consider `COc1cccc(C(F)(F)CCC(=O)N2CC3CCC(C2)N3c2ccc(C#N)cn2)n1` [Example 145, 6-(3-(4,4-difluoro-4-(6-methoxypyridin-2-yl)butanoyl)-3,8-diazabicyclo[3.2.1]octan-8-yl)nicotinonitrile], for which the IC50 is less than 10 nM.
